Results as given in patent publication US9546157B2, “Asymmetric piperidinyl-substituted ureas as medicines” (Helsinn Healthcare SA, priority 2014, dated 2017).

Legend:
GHSR1a [1] = target: T1, GHSR1a (Homo sapiens, UniProt Q92847); experiment: Calcium FLIPR assay, GHSR-1a agonism; assay type: cell-based; set-up: Emax: unit not given here; settings: HEK293/GHSR1a cells
T1 construct: expressed in transfected cells; host or cells: HEK293
Procedure: (§1) The intracellular calcium assay was carried out in a 384-well format FLIPR™ (Molecular Device) HEK293/GHSR1a cell line. Cells were seeded 24 hr prior to the experiments at an optimal density per well. Preincubation with selected calcium dye lasted for 30-60 min at room temperature or 37° C. Test compounds, dissolved in DMSO, were added at the appropriate time and incubated for 15 min followed by the addition of ghrelin with FlexStation or FLIPR. Relative fluorescence was monitored by the FLIPR™ Molecular Device. EC50 and IC50 values were estimated from dose-response data using GraphPad Prism software. To check for GHSR-1a agonism the compound was added at t=20 sec. and the calcium response was followed for 2 minutes. To check for GHSR-1a antagonism the compound and Ghrelin (10 nM) were added to the cells at t=20 sec. and the calcium response was measured for 2 minutes. The potency of the antagonist was calculated by its ability to reduce the ghrelin response. Dose-response curves were made for relevant antagonists.

GHSR1a [2] = target: T1, GHSR1a; experiment: Calcium FLIPR assay, GHSR-1a antagonism (reduction of ghrelin response); assay type: cell-based; settings: HEK293/GHSR1a cells, ghrelin 10 nM
Procedure: as §1

T1 sequence (Q92847 whole entry): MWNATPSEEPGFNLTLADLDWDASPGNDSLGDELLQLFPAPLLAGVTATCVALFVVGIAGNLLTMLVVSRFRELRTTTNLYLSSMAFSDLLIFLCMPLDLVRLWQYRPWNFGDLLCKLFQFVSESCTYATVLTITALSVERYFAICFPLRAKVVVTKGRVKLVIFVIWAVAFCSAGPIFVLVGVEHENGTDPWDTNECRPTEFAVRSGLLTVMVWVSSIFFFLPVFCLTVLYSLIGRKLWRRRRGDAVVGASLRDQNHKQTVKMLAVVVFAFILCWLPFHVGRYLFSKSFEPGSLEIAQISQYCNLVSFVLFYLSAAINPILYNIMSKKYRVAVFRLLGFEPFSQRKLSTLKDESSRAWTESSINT

| SMILES | EC50 (GHSR1a [1]) | IC50 (GHSR1a [2]) | Emax (GHSR1a [1]) |
| --- | --- | --- | --- |
| CN1CCC(N(C)C(=O)NC2(c3ccc(-c4cccs4)c(Cl)c3Cl)CC2)CC1 [Compound H0672, 3-(1-(2,3-dichloro-4-(thiophen-2-yl)phenyl)cyclopropyl)-1-methyl-1-(1-methylpiperidin-4-yl)urea] | > 30 µM | > 0.001 µM | – |
| CN1CCC(N(C)C(=O)NC2(c3ccc(-c4cncnc4)c(Cl)c3Cl)CC2)CC1 [Compound H0673, 3-(1-(2,3-dichloro-4-(pyrimidin-5-yl)phenyl)cyclopropyl)-1-methyl-1-(1-methylpiperidin-4-yl)urea] | > 30 µM | > 1 µM | – |
| CC(=O)c1ccsc1-c1ccc(C(C)NC(=O)N(C)C2CCN(C)CC2)c(Cl)c1Cl (centres unmarked) [Compound H0688, 3-(1-(4-(3-acetylthiophen-2-yl)-2,3-dichlorophenyl)ethyl)-1-methyl-1-(1-methylpiperidin-4-yl)urea] | 0.012 µM | 0.003 µM | 3100 |
| CC(NC(=O)N(C)C1CCN(C)CC1)c1ccc(-c2ccc(C(=O)O)s2)c(Cl)c1Cl (centres unmarked) [Compound H0689, 5-(2,3-dichloro-4-(1-(3-methyl-3-(1-methylpiperidin-4-yl)ureido)ethyl)phenyl)thiophene-2-carboxylic acid] | > 30 µM | > 1 µM | – |
| CC(=O)c1cncc(-c2ccc(C(C)NC(=O)N(C)C3CCN(C)CC3)c(Cl)c2Cl)c1 (centres unmarked) [Compound H0690, 3-(1-(4-(5-acetylpyridin-3-yl)-2,3-dichlorophenyl)ethyl)-1-methyl-1-(1-methylpiperidin-4-yl)urea] | > 30 µM | 0.98 µM | – |
| CON(C)C(=O)c1ccc(-c2ccc(C(C)NC(=O)N(C)C3CCN(C)CC3)c(Cl)c2Cl)s1 (centres unmarked) [Compound H0692, 5-(2,3-dichloro-4-(1-(3-methyl-3-(1-methylpiperidin-4-yl)ureido)ethyl)phenyl)-N-methoxy-N-methylthiophene-2-carboxamide] | > 1 µM | 0.55 µM | – |
| CC(NC(=O)N(C)C1CCN(C)CC1)c1ccc(-c2cnn(CCO)c2)c(Cl)c1Cl (centres unmarked) [Compound H0693, 3-(1-(2,3-dichloro-4-(1-(2-hydroxyethyl)-1H-pyrazol-4-yl)phenyl)ethyl)-1-methyl-1-(1-methylpiperidin-4-yl)urea] | 0.1 µM | 0.197 µM | – |
| COCCn1cc(-c2ccc(C(C)NC(=O)N(C)C3CCN(C)CC3)c(Cl)c2Cl)cn1 (centres unmarked) [Compound H0694, 3-(1-(2,3-dichloro-4-(1-(2-methoxyethyl)-1H-pyrazol-4-yl)phenyl)ethyl)-1-methyl-1-(1-methylpiperidin-4-yl)urea] | > 30 µM | 0.309 µM | – |
| CC(NC(=O)N(C)C1CCN(C)CC1)c1ccc(-c2cncc(Br)c2)c(Cl)c1Cl (centres unmarked) [Compound H0695, 3-(1-(4-(5-bromopyridin-3-yl)-2,3-dichlorophenyl)ethyl)-1-methyl-1-(1-methylpiperidin-4-yl)urea] | 0.005 µM | 0.078 µM | – |
| CC(NC(=O)N(C)C1CCN(C)CC1)c1ccc(-c2cc(F)cc(CO)c2)c(Cl)c1Cl (centres unmarked) [Compound H0696, 3-(1-(2,3-dichloro-3′-fluoro-5′-(hydroxymethyl)-[1,1′-biphenyl]-4-yl)ethyl)-1-methyl-1-(1-methylpiperidin-4-yl)urea] | > 30 µM | 0.12 µM | – |
| CC(NC(=O)N(C)C1CCN(C)CC1)c1ccc(-c2cncc(CC#N)c2)c(Cl)c1Cl (centres unmarked) [Compound H0699, 3-(1-(2,3-dichloro-4-(5-(cyanomethyl)pyridin-3-yl)phenyl)ethyl)-1-methyl-1-(1-methylpiperidin-4-yl)urea] | > 30 µM | 0.171 µM | – |
| CC(=O)/C=C(\Cl)c1ccc(C(C)NC(=O)N(C)C2CCN(C)CC2)c(Cl)c1Cl (centres unmarked) [Compound H0702, (Z)-3-(1-(2,3-dichloro-4-(1-chloro-3-oxobut-1-en-1-yl)phenyl)ethyl)-1-methyl-1-(1-methylpiperidin-4-yl)urea] | 1.1 µM | 0.096 µM | 1940 |
| CN1CCC(N(C)C(=O)NC(C)(C#N)c2ccc(-c3cncnc3)c(Cl)c2Cl)CC1 (centres unmarked) [Compound H0703, 3-(1-cyano-1-(2,3-dichloro-4-(pyrimidin-5-yl)phenyl)ethyl)-1-methyl-1-(1-methylpiperidin-4-yl)urea] | > 30 µM | 0.695 µM | – |
| C=Cc1cncc(-c2ccc(C(C)NC(=O)N(C)C3CCN(C)CC3)c(Cl)c2Cl)c1 (centres unmarked) [Compound H0706, 3-(1-(2,3-dichloro-4-(5-vinylpyridin-3-yl)phenyl)ethyl)-1-methyl-1-(1-methylpiperidin-4-yl)urea] | 0.091 µM | 0.116 µM | 2111 |
| CC(NC(=O)N(C)C1CCN(C)CC1)c1ccc(-c2cncc(-c3cn[nH]c3)c2)c(Cl)c1Cl (centres unmarked) [Compound H0707, 3-(1-(4-(5-(1H-pyrazol-4-yl)pyridin-3-yl)-2,3-dichlorophenyl)ethyl)-1-methyl-1-(1-methylpiperidin-4-yl)urea] | > 30 µM | 0.185 µM | – |
| COCc1cncc(-c2ccc(C(C)NC(=O)N(C)C3CCN(C)CC3)c(Cl)c2Cl)c1 (centres unmarked) [Compound H0708, 3-(1-(2,3-dichloro-4-(5-(methoxymethyl)pyridin-3-yl)phenyl)ethyl)-1-methyl-1-(1-methylpiperidin-4-yl)urea] | > 30 µM | 1.37 µM | – |
| CON(C(=O)NC(C#N)c1ccc(-c2cncnc2)c(Cl)c1Cl)C1CCN(C)CC1 (centres unmarked) [Compound H0709] | > 30 µM | 0.676 µM | – |
| C#Cc1cncc(-c2ccc(C(C)NC(=O)N(C)C3CCN(C)CC3)c(Cl)c2Cl)c1 (centres unmarked) [Compound H0710, 3-(1-(2,3-dichloro-4-(5-ethynylpyridin-3-yl)phenyl)ethyl)-1-methyl-1-(1-methylpiperidin-4-yl)urea] | 0.395 µM | 0.275 µM | 1621 |
| CC(NC(=O)N(C)C1CCN(C)CC1)c1ccc(-c2cncc(-c3c[nH]cn3)c2)c(Cl)c1Cl (centres unmarked) [Compound H0711, 3-(1-(4-(5-(1H-imidazol-4-yl)pyridin-3-yl)-2,3-dichlorophenyl)ethyl)-1-methyl-1-(1-methylpiperidin-4-yl)urea] | > 30 µM | 1.85 µM | – |
| CC(=O)Nc1cncc(-c2ccc(C(C)NC(=O)N(C)C3CCN(C)CC3)c(Cl)c2Cl)c1 (centres unmarked) [Compound H0712, N-(5-(2,3-dichloro-4-(1-(3-methyl-3-(1-methylpiperidin-4-yl)ureido)ethyl)phenyl)pyridin-3-yl)acetamide] | 0.22 µM | 0.42 µM | 1962 |
| CC(NC(=O)N(C)C1CCN(C)CC1)c1ccc(-c2ccc(C#N)s2)c(Cl)c1Cl (centres unmarked) [Compound H0713, 3-(1-(2,3-dichloro-4-(5-cyanothiophen-2-yl)phenyl)ethyl)-1-methyl-1-(1-methylpiperidin-4-yl)urea] | 0.029 µM | 0.187 µM | 3424 |
| COCCc1cncc(-c2ccc(C(C)NC(=O)N(C)C3CCN(C)CC3)c(Cl)c2Cl)c1 (centres unmarked) [Compound H0714, 3-(1-(2,3-dichloro-4-(5-(2-methoxyethyl)pyridin-3-yl)phenyl)ethyl)-1-methyl-1-(1-methylpiperidin-4-yl)urea] | > 30 µM | 0.453 µM | – |
| CCc1cncc(-c2ccc(C(C)NC(=O)N(C)C3CCN(C)CC3)c(Cl)c2Cl)c1 (centres unmarked) [Compound H0715, 3-(1-(2,3-dichloro-4-(5-ethylpyridin-3-yl)phenyl)ethyl)-1-methyl-1-(1-methylpiperidin-4-yl)urea] | 0.042 µM | 0.057 µM | 2479 |
